Among the test systems are 786-0 renal; A498 renal; A549 NSCLC; CAKI-1 renal; HOP-92 NSCLC; MALME-3M melanoma; OVCAR-8 ovarian; PC-3 prostate; SK-OV-3 ovarian; TK-10 renal.
Holding throughout (assay): growth of human tumour cells (NCI), 48 h

Values joined by “and” are separate entries in the source; they are usually repeats but may differ in a detail not shown here. Equal values may be shown once.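 Step 1: Grow cells in 96-well plates. Step 2: Expose to compound for 48 hours at 5 concentrations. Step 3: Interpolate endpoints linearly; if unreached, use highest concentration. GI50 is the concentration that inhibits growth by half. TGI: concentration producing complete growth inhibition.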 Bounds are passed on as bounds.

In the case of `C[C@@H](Oc1cc(-n2cnc3ccc(CN4CCN(C)CC4)cc32)sc1C(N)=O)c1ccccc1C(F)(F)F`, the GI50 in the assay on 786-0 renal is 43.9 nM and 85.4 nM; with A498 renal, 61.5 nM and 34.1 nM; in the assay on A549 NSCLC, 21.1 nM and 30.6 nM; with CAKI-1 renal, 337 nM and 222 nM; with HOP-92 NSCLC, 34.2 nM and 191 nM; with MALME-3M melanoma it was 2810 nM and 2770 nM. Besides, the GI50 was < 15.3 nM and 14.6 nM with OVCAR-8 ovarian; < 19.2 nM and 29.3 nM in the assay with PC-3 prostate; 25 nM and 67.3 nM in the assay on SK-OV-3 ovarian; 2690 nM and 1460 nM with TK-10 renal. Besides, the TGI is 2040 nM and > 7110 nM in the assay on 786-0 renal; 982 nM and 187 nM with A498 renal; 10800 nM and > 10000 nM in the assay on A549 NSCLC; 15100 nM and > 10000 nM with CAKI-1 renal; 947 nM and > 3140 nM with HOP-92 NSCLC; 7620 nM and > 6990 nM in the assay on MALME-3M melanoma. The TGI with OVCAR-8 ovarian is 13600 nM and > 10000 nM; with PC-3 prostate, 15500 nM and > 10000 nM; with SK-OV-3 ovarian it was 1670 nM and > 10000 nM; with TK-10 renal it was 17300 nM and > 10000 nM.
